Reference: US4690823A, “Ibuprofen-containing soft gelatin capsules and process for preparing same” (Dolorgiet Beteiligungs-GmbH, priority 1984, dated 1987)

Assay: Precipitation of ibuprofen from solution on contact with aqueous medium / artificial gastric juice or on cooling
Format: physicochemical
Conditions: addition of small amounts of water, or aqueous medium such as artificial gastric juice
Text: It is an object of the present invention to provide a medicament that can be readily taken that contains an active amount of ibuprofen in a carrier, that is simple to prepare and that will quickly display a high activity. […] When such a solution, upon oral administration, gets into the stomach, then the aqueous content of the stomach causes the ibuprofen to be precipitated so that it will be barred from a quick resorption. […] In addition, these solutions may be incorporated in soft gelatin capsules in a per se known manner. The latter dosage form has an advantage over all other previously known dosage forms for ibuprofen that upon intake the active ingredient is quickly resorbed. To this effect it is not necessary that, subsequent to synthesis, the active ingredient is subjected to expensive galenic processing measures. […] In order to dissolve ibuprofen in the solvents according to the invention, the solvents are heated at 45° C. to 65° C., since only at these temperatures the dissolution will take place sufficiently fast. Upon cooling to room temperature, no reprecipitation occurs. […] It is readily possible that 40 parts by weight are additionally suspended in said solutions at room temperature and thereafter incorporated in soft gelatin capsules. […]

## CC(C)Cc1ccc(C(C)C(=O)O)cc1 (stereo not shown) [Ibuprofen, 2-(4-isobutylphenyl)propionic acid]
  precipitation on contact with aqueous medium (in words): will immediately precipitate upon the addition of small amounts of water
